# Where no end group is shown, it is not given here.
# Key:
# [1] = system: alcoholic or methadone- or heroin-dependent patients; settings: human, in vivo
# Experimental: Of the 25 alcoholic patients 8 were on admission already in delirium tremens to a medium to severe degrees. After the first subjective and objective withdrawal signs manifested themselves the patients received up to 4 intravenous infusions of in each case 0.0214 mg/kg of DSIP daily. For this purpose, the substance was dissolved in physiological sodium chloride solution and infused in the course of 5 minutes.
# The duration of treatment amounted to a maximum of 3 days.
# [2] = system: rats; assay: Toxicological study, daily intravenous administration for 4 weeks, rats; settings: maximum dosage (6 mg/kg i.v. daily for 4 weeks)
# Experimental: (§1) Toxicological studies were carried out on 12 male and 12 female rats as well as on 3 male and 3 female dogs per dosage. For this purpose DSIP was dissolved in physiological sodium chloride solution and administered intravenously daily for 4 weeks in the dosages of 0.6, 1.8 and 6 mg/kg. At an interval of 2 weeks during these studies the hematological, hematochemical and the urine status were determined, and the electrocardiogram was recorded and analyzed.
# (§2) At the termination of the aforementioned studies all animals were painlessly killed and there followed the autopsy besides the removal of organ samples for histological investigations.
# [3] = system: dogs; settings: dog, in vivo
# Experimental: as §1, §2
# [4] = system: rats; settings: rat, in vivo
# Experimental: as §1, §2
# [5] = system: dogs; assay: Toxicological study, daily intravenous administration for 4 weeks, dogs; settings: maximum dosage (6 mg/kg i.v. daily for 4 weeks)
# Experimental: as §1, §2
# [6] = system: morphine-dependent mouse; assay: Inhibition of the naloxone-triggered withdrawal leaps of the morphine-dependent mouse; format: in vivo; settings: 30 mg/kg s.c. 30 minutes before naloxone; median leaps vs NaCl control
# Excerpt: An opiate-dependent organism for example reacts the same irrespective of species on the sudden withdrawal of the opiate (e.g. morphine) with withdrawal symptoms, i.e. addictive drug withdrawal conditions. In the course of this occurrence central and peripheral symptoms appear, of which the most striking in the mouse is a series of violent leaps (the so-called "jumping"). The number of leaps per time interval is proportional to the intensity of the withdrawal effect and their enumeration enables the incident to be evaluated quantitatively.
# In order to produce the dependence a compressed tablet, which contained 75 mg of morphine (base) and which progressively dissolved with continuous liberation of the morphine, was implanted under the dorsal skin of male mice (weight about 22 g). On the third day after the implantation the morphine antagonist naloxone in a dosage of 0.1 mg/kg was administered subcutaneously to the animals in order to trigger off the withdrawal leaps.
# After the injection, the leaps of each individual animal were counted for 20 minutes. The group median value was calculated from the total leaps of 8 animals, which formed a group. […] The dosage median values and, respectively, control median values were calculated from all individual values per dosage and, respectively, the positive and negative controls.
Compound,Tolerance of DSIP: poor [1],Electrocardiogram [2],Tolerability of the dosages [3],Tolerability of the dosages [4],Electrocardiogram [5],% of negative control [6]
"WAGGDASGE [DSIP, Trp-Ala-Gly-Gly-Asp-Ala-Ser-Gly-Glu]",2 patients,no changes in the electrocardiogram,tolerated without any side effects,tolerated without any side effects,no changes in the electrocardiogram,–
CN1CC[C@]23c4c5ccc(O)c4O[C@H]2[C@@H](O)C=C[C@H]3[C@H]1C5 [Morphine],–,–,–,–,–,27%

# Reference: patent US4496545A, “Nonapeptide for treating addictive drug withdrawal conditions” (priority 1981, dated 1985)
